In ChEMBL document CHEMBL1201862, “PubChem BioAssay data set” (2004):
Activity calls are given as the source filed them.

Columns and labels:
Cytochrome P450 1A2 = biological target: T1, Cytochrome P450 1A2 (Homo sapiens, UniProt P05177);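 further: PubChem cytochrome P450 panel assay, CYP1A2 panel member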
T1 sequence (P05177 whole entry): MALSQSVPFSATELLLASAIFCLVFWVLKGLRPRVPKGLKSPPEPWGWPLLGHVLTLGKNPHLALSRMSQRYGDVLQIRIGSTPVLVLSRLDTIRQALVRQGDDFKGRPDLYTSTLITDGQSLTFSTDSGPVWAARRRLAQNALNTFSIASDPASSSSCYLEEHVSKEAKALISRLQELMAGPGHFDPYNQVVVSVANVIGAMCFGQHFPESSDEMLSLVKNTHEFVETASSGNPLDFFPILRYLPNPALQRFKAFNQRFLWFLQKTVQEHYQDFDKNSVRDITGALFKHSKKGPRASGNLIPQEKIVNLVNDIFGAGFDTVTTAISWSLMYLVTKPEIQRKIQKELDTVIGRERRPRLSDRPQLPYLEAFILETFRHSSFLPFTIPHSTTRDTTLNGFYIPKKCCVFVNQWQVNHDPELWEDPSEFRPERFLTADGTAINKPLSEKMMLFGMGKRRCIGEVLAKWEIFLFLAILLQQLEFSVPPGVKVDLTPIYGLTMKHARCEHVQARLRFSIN

Cytochrome P450 2C9 = Cytochrome P450 2C9 (Homo sapiens, UniProt P11712)
Chain of Cytochrome P450 2C9 (P11712 whole entry): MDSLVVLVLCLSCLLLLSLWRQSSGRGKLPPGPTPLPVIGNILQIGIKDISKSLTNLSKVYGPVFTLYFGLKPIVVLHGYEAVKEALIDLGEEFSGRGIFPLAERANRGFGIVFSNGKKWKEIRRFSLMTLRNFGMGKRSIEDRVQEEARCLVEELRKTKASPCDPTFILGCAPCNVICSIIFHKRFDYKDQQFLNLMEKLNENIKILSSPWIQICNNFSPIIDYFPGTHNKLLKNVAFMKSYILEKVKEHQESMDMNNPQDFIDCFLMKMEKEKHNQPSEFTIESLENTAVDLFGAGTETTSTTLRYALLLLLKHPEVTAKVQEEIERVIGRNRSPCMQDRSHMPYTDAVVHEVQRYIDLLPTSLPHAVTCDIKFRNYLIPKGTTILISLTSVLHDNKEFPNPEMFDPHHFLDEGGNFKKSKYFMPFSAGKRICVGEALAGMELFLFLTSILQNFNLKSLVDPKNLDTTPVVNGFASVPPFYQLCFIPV

BJ [1] = assay: cytotoxicity toward BJ-TERT fibroblasts, dose response, cell-based, RAS-independent, luminescence (AID 1933); assay type: functional; conditions: Homo sapiens
BJ [2] = assay: cells; assay type: functional, cell-based; conditions: Homo sapiens
BJ [3] = assay: cytotoxicity toward BJ-TERT-LT-ST fibroblasts, dose response, cell-based, RAS-independent, luminescence (AID 1935); assay type: functional; conditions: Homo sapiens;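 further: BJ fibroblasts immortalized with TERT plus LT and ST oncogenes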
[4] = cytotoxicity toward DRD oncogenic fibroblasts, dose response, cell-based, non-viral oncogenic, luminescence (AID 1934); assay type: functional; conditions: Homo sapiens
[5] = cytotoxicity in HEK-293T cells, dose response, cytotoxicity control for TCR NF-kB inhibitor project, luminescence, T-cell screen hits (AID 489026); assay type: functional, cell-based;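 further: cells exposed to compound about 14 hours before the viability readout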
[6] = biological target: FAD-linked sulfhydryl oxidase ALR (Homo sapiens, UniProt P55789); assay: inhibitors of human ALR sulfhydryl oxidase, dose response, biochemical, H2O2 detection, luminescence, cherry-pick (AID 493248)
Chain of FAD-linked sulfhydryl oxidase ALR (P55789 whole entry): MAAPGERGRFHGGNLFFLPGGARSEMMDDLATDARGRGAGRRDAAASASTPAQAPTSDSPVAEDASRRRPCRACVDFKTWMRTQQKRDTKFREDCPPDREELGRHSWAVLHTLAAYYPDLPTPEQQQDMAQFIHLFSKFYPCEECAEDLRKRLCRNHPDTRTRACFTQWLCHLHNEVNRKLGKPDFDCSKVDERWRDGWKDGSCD

[7] = biological target: Dual specificity tyrosine-phosphorylation-regulated kinase 1A (Rattus norvegicus, UniProt Q63470); assay type: biochemical, Homo sapiens
Cytochrome P450 2C19 = Cytochrome P450 2C19 (Homo sapiens, UniProt P33261); assay: Cytochrome panel assay with activity outcomes. Panel member name: p450-cyp2c19 Compounds with AC50 equal or less than 10 uM are considered active; assay type: functional; conditions: read-out: AC50
Chain of Cytochrome P450 2C19 (P33261 whole entry): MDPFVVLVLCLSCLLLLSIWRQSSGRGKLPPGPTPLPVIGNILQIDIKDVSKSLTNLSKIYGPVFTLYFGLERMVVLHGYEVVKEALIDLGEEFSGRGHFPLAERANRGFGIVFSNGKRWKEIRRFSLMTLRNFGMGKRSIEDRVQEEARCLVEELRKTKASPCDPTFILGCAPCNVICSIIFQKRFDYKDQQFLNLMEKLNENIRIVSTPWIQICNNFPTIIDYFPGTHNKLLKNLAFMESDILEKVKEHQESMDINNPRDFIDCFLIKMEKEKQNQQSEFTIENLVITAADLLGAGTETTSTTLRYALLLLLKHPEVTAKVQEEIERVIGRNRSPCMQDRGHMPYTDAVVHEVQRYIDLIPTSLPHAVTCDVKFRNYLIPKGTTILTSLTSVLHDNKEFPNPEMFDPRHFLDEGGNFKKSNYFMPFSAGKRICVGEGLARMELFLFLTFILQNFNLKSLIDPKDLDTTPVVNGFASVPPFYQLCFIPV

P388/ADR = assay: cells; assay type: functional; conditions: Mus musculus
SN12K1 = assay: cells; assay type: functional; conditions: Homo sapiens
P388 = assay: cells; assay type: functional; conditions: Mus musculus
[8] = biological target: Induced myeloid leukemia cell differentiation protein Mcl-1 (Homo sapiens, UniProt Q07820); assay type: functional
Chain of Induced myeloid leukemia cell differentiation protein Mcl-1 (Q07820 whole entry): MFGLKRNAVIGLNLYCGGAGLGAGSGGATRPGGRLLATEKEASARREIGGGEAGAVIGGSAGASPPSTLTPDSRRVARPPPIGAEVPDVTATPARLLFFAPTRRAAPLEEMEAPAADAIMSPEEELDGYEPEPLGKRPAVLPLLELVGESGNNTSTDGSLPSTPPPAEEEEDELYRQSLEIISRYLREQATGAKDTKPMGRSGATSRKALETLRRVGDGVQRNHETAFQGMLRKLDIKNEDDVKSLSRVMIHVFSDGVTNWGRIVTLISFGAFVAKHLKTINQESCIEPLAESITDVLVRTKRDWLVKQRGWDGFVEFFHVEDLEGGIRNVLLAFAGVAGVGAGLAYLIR

[9] = intracellular Trypanosoma cruzi inhibitors in host cells – cell-based, plate reader, cherry-pick samples, set 3, dose response (AID 651818); assay type: functional;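 further: compounds incubated with infected cells for about four days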
[10] = ZM109 Env clade C HIV-1 fusion inhibitors, dose response, HeLa effector, CEM target cells, luciferase, cherry-pick (AID 652058); assay type: functional, cell-based
[11] = inhibitors of clade B AD8 Env fusion, dose response, cell-based, cherry-pick (AID 652062); assay type: functional;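 further: luciferase signal from cell-cell fusion driven by HIV-1 clade B AD8 Env; potency is for inhibitors of fusion seen as a drop in luminescence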
[12] = inhibitors of HIV Env-driven cell fusion, dose response, cherry-pick (AID 652057); assay type: functional, cell-based
Cytochrome P450 3A4 = Cytochrome P450 3A4 (Homo sapiens, UniProt P08684);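 further: CYP3A4 tested as one member of a cytochrome P450 panel screen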
Chain of Cytochrome P450 3A4 (P08684 whole entry): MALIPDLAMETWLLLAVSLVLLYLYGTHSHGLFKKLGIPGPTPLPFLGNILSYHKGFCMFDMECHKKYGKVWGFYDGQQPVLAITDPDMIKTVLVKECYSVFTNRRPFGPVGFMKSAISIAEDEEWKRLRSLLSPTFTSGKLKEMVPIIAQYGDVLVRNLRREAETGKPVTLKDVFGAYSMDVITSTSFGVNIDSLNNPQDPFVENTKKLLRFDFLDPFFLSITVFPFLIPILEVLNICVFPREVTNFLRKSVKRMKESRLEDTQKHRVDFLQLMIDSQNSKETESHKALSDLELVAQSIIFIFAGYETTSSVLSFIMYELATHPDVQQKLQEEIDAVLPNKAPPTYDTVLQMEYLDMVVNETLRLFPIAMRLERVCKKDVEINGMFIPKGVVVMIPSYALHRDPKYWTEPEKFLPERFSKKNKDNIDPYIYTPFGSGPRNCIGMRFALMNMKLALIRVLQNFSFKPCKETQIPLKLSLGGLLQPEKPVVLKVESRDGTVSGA

[13] = biological target: T2, Rac GTPase-activating protein 1 (Homo sapiens, UniProt Q9H0H5); assay: MgcRacGAP GTPase-activating activity inhibitors, confirmation, biochemical, ADP Hunter fluorescence, primary and confirmatory (AID 624330); assay type: functional
T2 sequence (Q9H0H5 whole entry): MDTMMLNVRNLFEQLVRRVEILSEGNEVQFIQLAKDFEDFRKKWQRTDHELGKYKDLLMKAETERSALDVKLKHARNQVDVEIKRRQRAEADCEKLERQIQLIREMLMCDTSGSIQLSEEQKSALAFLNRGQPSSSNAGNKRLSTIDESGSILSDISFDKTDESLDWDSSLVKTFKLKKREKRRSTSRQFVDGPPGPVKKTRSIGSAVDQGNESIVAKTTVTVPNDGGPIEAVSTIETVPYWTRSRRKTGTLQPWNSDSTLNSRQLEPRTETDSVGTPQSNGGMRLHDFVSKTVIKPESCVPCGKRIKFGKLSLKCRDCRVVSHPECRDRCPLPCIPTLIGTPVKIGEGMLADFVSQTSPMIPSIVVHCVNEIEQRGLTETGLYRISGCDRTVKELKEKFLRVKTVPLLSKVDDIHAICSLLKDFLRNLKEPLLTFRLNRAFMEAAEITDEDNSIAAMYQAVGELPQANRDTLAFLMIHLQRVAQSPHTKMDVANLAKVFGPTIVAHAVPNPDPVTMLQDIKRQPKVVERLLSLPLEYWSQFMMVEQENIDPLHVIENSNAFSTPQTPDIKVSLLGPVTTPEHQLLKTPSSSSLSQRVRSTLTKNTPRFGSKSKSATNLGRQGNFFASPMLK

[14] = HEp-2 cell cytotoxicity, dose response, cytotoxicity control for RSV inhibitor project, HTS (AID 2410); assay type: functional; conditions: human respiratory syncytial virus

Cc1[nH]n(-c2ccccc2)c(=O)c1CCOC(=O)c1cccc(C(F)(F)F)c1
AC50 (Cytochrome P450 1A2): 22.4 µM (inconclusive) | AC50 (Cytochrome P450 2C9): inconclusive

COc1ccc(Cl)cc1NC(=O)CN(C)CC(=O)Nc1ccccc1N1CCOCC1
EC50 (BJ [1]): 3.04 µM (active) | EC50 (BJ [2]): 37.1 µM (active) | EC50 (BJ [3]): 30.7 µM (active) | EC50 [4]: 2.55 µM (active) | IC50 [5]: 70.8 µM (inactive)

O=C1CSC(c2ccccn2)N1c1ccccc1 (stereo not drawn)
AC50 [6]: 0.225 µM (active)

O=S(=O)(O)c1cccc(N=Nc2c(O)ccc3ccccc23)c1
AC50 [7]: 5.88 µM (active)

Brc1[nH]nc2ccccc12
AC50 (Cytochrome P450 2C19): 11.2 µM (inconclusive) | AC50 (Cytochrome P450 2C9): inconclusive

CCCCC1=C(Br)C(=C(Br)Br)OC1=O
GI50 (P388/ADR): 0.443 µM (active) | GI50 (SN12K1): 1.96 µM (inactive) | GI50 (P388): 0.505 µM (active)

Cc1nc2c(ccc3nsnc32)[nH]1
AC50 [7]: 5.91 µM (active)

COc1ccc(NC(=O)/C(C#N)=C\c2ccc(-c3cccc(C(=O)O)c3C)o2)cc1
AC50 [7]: 1.7 µM (active)

Cc1ccc(/C=N/NC(=O)c2c(C)nc3ccc(Br)cn23)cc1
IC50 [5]: > 80 µM (inactive)

Cc1nn(Cc2ccc(F)cc2)c2sc(C(=O)Nc3ccc(N4CCOCC4)cc3N3CCOCC3)cc12
IC50 [8]: 2.73 µM (not active)

O=C(Nc1ccc(N2CCCCC2)cc1)c1cccnc1
AC50 [6]: 21.6 µM (active)

COc1cccc2c1C(=O)c1c(O)c3c(c(O)c1C2=O)C[C@@](O)(C(C)=O)C[C@@H]3OC1CC(N(Cc2ccccc2)Cc2ccccc2)C(O)C(C)O1 (stereo partly drawn)
GI50 (P388/ADR): 1.57 µM (inactive) | GI50 (SN12K1): 2.92 µM (inactive) | GI50 (P388): 0.675 µM (active)

C[C@H]1CN([C@@H](C)CO)C(=O)Cc2cc(N(C)C)ccc2O[C@H]1CN(C)Cc1ccc(C(=O)Nc2ccccc2N)cc1
AC50 [9]: 1.93 µM (active)

O=C1NC(c2cccc3ccccc23)Nc2ccc(O)cc21 (stereo not drawn)
GI50 (P388/ADR): 24.8 µM (inactive) | GI50 (SN12K1): 36.7 µM (inactive) | GI50 (P388): 19 µM (inactive)

CC(=O)c1c(C)[nH]c(C(=O)OCC(=O)Nc2c(C)cccc2C)c1C
AC50 [10]: 0.745 µM (active) | AC50 [11]: 3.02 µM (active)

C#CCn1c(=O)c(C#N)c(O)c2cc3ccccc3nc21
GI50 (P388/ADR): > 100 µM (inactive) | GI50 (SN12K1): > 100 µM (inactive) | GI50 (P388): > 100 µM (inactive)

CCN(c1ccc(NC(=O)COC(=O)c2cccs2)cc1)C(C)C
IC50 [8]: 1.4 µM (not active)

Cc1noc(C)c1S(=O)(=O)N(C)C[C@@H]1Oc2ccc(NC(=O)NC3CCCCC3)cc2CC(=O)N([C@@H](C)CO)C[C@@H]1C
AC50 [12]: 9.11 µM (active) | AC50 [10]: 7.36 µM (active) | AC50 [11]: 5.37 µM (active)

COC(=O)C1OC(Oc2cc(O)c3c(=O)cc(-c4ccc(O)cc4)oc3c2)C(O)C(O)C1O (stereo not drawn)
GI50 (P388/ADR): > 35.5 µM (inactive) | GI50 (SN12K1): > 100 µM (inactive)

C[C@H]1C/C=C/[C@H]2[C@@H]3O[C@]3(C)[C@@H](C)[C@H]3[C@H](Cc4ccccc4)NC(=O)[C@]32OC(=O)O/C=C/[C@@](C)(O)C1=O [CYTOCHALASIN E]
GI50 (SN12K1): < 0.01 µM (active) | GI50 (P388): 0.0166 µM (active)

Cc1nc(NC(N)=Nc2ccccc2)nc2ccccc12
AC50 (Cytochrome P450 2C19): 39.8 µM (inconclusive) | AC50 (Cytochrome P450 3A4): 39.8 µM (inconclusive) | AC50 (Cytochrome P450 2C9): inconclusive

COc1cnn(-c2ccccc2)c(=O)c1SCc1ccc(Cl)cc1Cl
IC50 [8]: 1.26 µM (not active)

CN(C)c1ccc(C(=O)NC2(N3CCC3=O)CCCC2)cc1
AC50 [6]: 2.55 µM (active) | IC50 [13]: 126 µM (active)

C[C@H](CO)N1C[C@H](C)[C@H](CN(C)C(=O)Nc2ccc(F)cc2)Oc2ncc(C#Cc3ccc(C(F)(F)F)cc3)cc2C1=O
AC50 [9]: 2.59 µM (active)

C[C@@H]1CN([C@H](C)CO)C(=O)Cc2cc(NC(=O)Nc3ccc(C(F)(F)F)cc3)ccc2O[C@H]1CN(C)Cc1ccc(C(F)(F)F)cc1
AC50 [9]: 6.59 µM (active)

COc1ccc(-c2csc(N=C(N)N)n2)cc1
AC50 [7]: 0.541 µM (active)

Cc1ccc(N2CCN(C(=O)N3CCCC3)CC2)cc1Cl
AC50 [6]: 27.2 µM (active)

COc1ccc([Si](C)(C)[C@@H]2[C@@H](CCO)O[C@]3(C(=O)N4c5c(cc(OC)cc53)C(C)=CC4(C)C)[C@H]2C)cc1
AC50 [12]: 11.8 µM (active) | AC50 [10]: 17.2 µM (active) | AC50 [11]: 16.8 µM (active)

CCN(CC)S(=O)(=O)c1ccc2c3c(cccc13)C(=O)S2
AC50 (Cytochrome P450 3A4): 17.8 µM (inconclusive) | AC50 (Cytochrome P450 2C9): inconclusive

O=S(=O)(Nc1ccc(N2CCCCC2)cc1)c1cccc2cccnc12
AC50 [6]: 0.723 µM (active)

COc1ccccc1/C=C1\CCC(CN(C)C)C1=O (stereo not drawn)
GI50 (P388/ADR): 0.568 µM (active) | GI50 (SN12K1): 2.05 µM (inactive) | GI50 (P388): 0.608 µM (active)

C[C@@H]1CN([C@H](C)CO)C(=O)Cc2cc(NC(=O)Nc3ccc(C(F)(F)F)cc3)ccc2O[C@@H]1CN(C)Cc1ccncc1
AC50 [9]: 2.05 µM (active)

CC(=O)N1CCN=C1SCc1cccc(F)c1
AC50 [6]: 6.74 µM (active)

COc1cc(C)c(Br)cc1S(=O)(=O)NCc1ccccc1
AC50 (Cytochrome P450 2C9): inconclusive

Cc1ccccc1NS(=O)(=O)c1ccc(N2CCCC2=O)cc1
IC50 [5]: > 80 µM (inactive)

Sc1nnc(-c2ccccn2)n1/N=C/c1ccc(-c2ccccc2Cl)o1
CC50 [14]: > 50 µM (active) | AC50 [6]: 5.29 µM (active)

Cc1c2cc[n+](C)cc2c(C)c2c1[nH]c1ccc(O)cc12 [ELLIPTINIUM ACETATE]
GI50 (P388/ADR): 1.92 µM (inactive) | GI50 (SN12K1): 2.98 µM (inactive) | GI50 (P388): 0.131 µM (active)

CCCCC(NC(=O)CC)C(=O)O (stereo not drawn)
GI50 (P388/ADR): > 100 µM (inactive) | GI50 (SN12K1): > 100 µM (inactive) | GI50 (P388): > 100 µM (inactive)

Cc1ccc(S(=O)(=O)Nc2ccc3c(c2)CC(=O)N([C@H](C)CO)C[C@@H](C)[C@@H](CN(C)S(=O)(=O)c2ccc(C)cc2)O3)cc1
AC50 [9]: 4.11 µM (active)

C[C@H]1CN([C@@H](C)CO)C(=O)Cc2cc(NC(=O)C3CCCCC3)ccc2O[C@@H]1CN(C)Cc1ccc2c(c1)OCO2
AC50 [9]: 2.81 µM (active)

C[C@@H]1CCCCO[C@@H](CN(C)C(=O)Nc2ccc(C(F)(F)F)cc2)[C@@H](C)CN([C@H](C)CO)C(=O)c2cc(NC(=O)Nc3ccc(F)cc3)ccc2O1
AC50 [9]: 4.68 µM (active)
